# Experimental data: article PMC12566046, “Arylpiperazinyl-Benzocycloheptapyrrole-Carboxamides Endowed with Dual Anticancer and Antiviral Activities” (Molecules, 2025)
# Experiments:
# [1] = tested on: IAV strain A/PR/8/34 (H1N1); test: microbe, parasite or virus in culture; settings: Influenza A virus, MDCK, read-out: IAV/MDCK EC50
# in vitro = settings: dog
# [2] = tested on: MDA-MB-435 (melanoma cell line); test: NCI-60 single-dose assay; format: cell-based, human; settings: for inhibition at 10 µM: Homo sapiens, MDA-MB-435, read-out: growth inhibition (GI%) and cytotoxicity (negative values)
# Method in brief: (§1)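 NCI-60 one-dose format: each compound is tested at a single dose against human tumour lines for cytotoxic effect.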
# [3] = tested on: MALME-3M (melanoma cell line); test: NCI-60 single-dose assay; format: cell-based, human; settings: for inhibition at 10 µM: Homo sapiens, Malme-3M, read-out: growth inhibition (GI%) and cytotoxicity (negative values)
# Method in brief: as §1
# SR (leukemia cell line) = test: NCI-60 single-dose assay; format: cell-based, human; settings: for inhibition at 10 µM: Homo sapiens, read-out: growth inhibition (GI%) and cytotoxicity (negative values)
# Method in brief: as §1
# [4] = tested on: NCI-H23 (non-small cell lung cancer cell line); test: NCI-60 single-dose assay; format: cell-based, human; settings: Homo sapiens, NCI-H23, read-out: growth inhibition (GI%) and cytotoxicity (negative values)
# Method in brief: as §1
# [5] = tested on: MCF-7 (breast cancer cell line); test: NCI-60 single-dose assay; format: cell-based, human; settings: Homo sapiens, MCF7, read-out: growth inhibition (GI%) and cytotoxicity (negative values), MCF-7, 10^−5 M
# Method in brief: as §1
# [6] = tested on: MDA-MB-231/ATCC (breast cancer cell line); test: NCI-60 single-dose assay; format: cell-based, human; settings: Homo sapiens, MDA-MB-231, read-out: growth inhibition (GI%) and cytotoxicity (negative values)
# Method in brief: as §1
# [7] = tested on: HT29 (colon cancer cell line); test: NCI-60 single-dose assay; format: cell-based, human; settings: for inhibition at 10 µM: Homo sapiens, HT-29, read-out: growth inhibition (GI%) and cytotoxicity (negative values)
# Method in brief: as §1
# [8] = tested on: SN12C (renal cancer cell line); test: NCI-60 single-dose assay; format: cell-based, human; settings: Homo sapiens, read-out: growth inhibition (GI%) and cytotoxicity (negative values)
# Method in brief: as §1
# [9] = tested on: HCT-15 (colon cancer cell line); test: NCI-60 single-dose assay; format: cell-based, human; settings: Homo sapiens, HCT-15, read-out: growth inhibition (GI%) and cytotoxicity (negative values)
# Method in brief: as §1
# [10] = tested on: NCI-H522 (non-small cell lung cancer cell line); test: NCI-60 single-dose assay; format: cell-based, human; settings: Homo sapiens, NCI-H522, read-out: growth inhibition (GI%) and cytotoxicity (negative values)
# Method in brief: as §1
# [11] = tested on: UO-31 (renal cancer cell line); test: NCI-60 single-dose assay; format: cell-based, human; settings: Homo sapiens, UO-31, read-out: growth inhibition (GI%) and cytotoxicity (negative values)
# Method in brief: as §1
# [12] = tested on: T-47D (breast cancer cell line); test: NCI-60 single-dose assay; format: cell-based, human; settings: Homo sapiens, T47D, read-out: growth inhibition (GI%) and cytotoxicity (negative values)
# Method in brief: as §1
# [13] = tested on: CAKI-1 (renal cancer cell line); test: NCI-60 single-dose assay; format: cell-based, human; settings: Homo sapiens, CAKI-1, read-out: growth inhibition (GI%) and cytotoxicity (negative values)
# Method in brief: as §1
# [14] = tested on: NCI-H226 (non-small cell lung cancer cell line); test: NCI-60 single-dose assay; format: cell-based, human; settings: Homo sapiens, NCI-H226, read-out: growth inhibition (GI%) and cytotoxicity (negative values)
# Method in brief: as §1
# [15] = tested on: COLO 205 (colon cancer cell line); test: NCI-60 single-dose assay; format: cell-based, human; settings: for growth inhibition (GI%) and cytotoxicity (negative values): human
# Method in brief: as §1
# [16] = tested on: RPMI-8226 (leukemia cell line); test: NCI-60 single-dose assay; format: cell-based, human; settings: for inhibition at 10 µM: Homo sapiens, RPMI-8226, read-out: growth inhibition (GI%) and cytotoxicity (negative values)
# Method in brief: as §1
# [17] = tested on: SK-MEL-2 (melanoma cell line); test: NCI-60 single-dose assay; format: cell-based, human; settings: for inhibition at 10 µM: Homo sapiens, SK-MEL-2, read-out: growth inhibition (GI%) and cytotoxicity (negative values)
# Method in brief: as §1
# M14 (melanoma cell line) = test: NCI-60 five-dose assay
# [18] = tested on: K-562 (leukemia cell line); test: NCI-60 five-dose assay; format: cell-based, human; settings: Homo sapiens, K562, five doses (10^−4–10^−8 M), read-out: Growth inhibition 50 (GI50)
# [19] = tested on: SK-MEL-28 (melanoma cell line); test: NCI-60 five-dose assay
# [20] = tested on: HCC-2998 (colon cancer cell line); test: NCI-60 five-dose assay; format: cell-based, human; settings: Homo sapiens, five doses (10^−4–10^−8 M), read-out: Growth inhibition 50 (GI50)
# [21] = tested on: SK-MEL-2 (melanoma cell line); test: NCI-60 five-dose assay
# [22] = tested on: LOX IMVI (melanoma cell line); test: NCI-60 five-dose assay
# [23] = tested on: IAV strain A/PR/8/34 (H1N1); settings: preliminary screening
# [24] = tested on: SK-MEL-5 (melanoma cell line); test: NCI-60 five-dose assay
# [25] = tested on: RXF 393 (renal cancer cells); test: NCI-60 five-dose assay; format: cell-based, human; settings: Homo sapiens, five-dose screen
structure (smiles),measurement,setting,value
"O=C(NCCCN1CCN(Cc2ccccc2)CC1)c1c(Cl)[nH]c2c1CCCc1ccccc1-2 [Compound 20, N-(3-(4-Benzylpiperazin-1-yl)propyl)-2-chloro-1,4,5,6-tetrahydrobenzo[6,7]cyclohepta[1,2-b]pyrrole-3-carboxamide]",EC50,[1],17.7 µM
same,CC50,in vitro,6.12 µM
same,growth inhibition (GI%) and cytotoxicity (negative values),[2]; human,−21.33%
same,growth inhibition (GI%) and cytotoxicity (negative values),[3]; human,−84.03%
same,inhibition at 10 µM,SR (leukemia cell line),99.4%
same,inhibition at 10 µM,[4],60.2%
same,inhibition at 10 µM,[5],95.5%
same,inhibition at 10 µM,[6],62.6%
same,inhibition at 10 µM,[7],94.7%
same,inhibition at 10 µM,[8],< 60%
same,inhibition at 10 µM,[9],99%
same,inhibition at 10 µM,[10],92.2%
same,inhibition at 10 µM,[11],65.9%
same,inhibition at 10 µM,[12],78.5%
same,inhibition at 10 µM,[13],84.7%
same,inhibition at 10 µM,[14],< 60%
same,growth inhibition (GI%) and cytotoxicity (negative values),[15],−59.92%
same,growth inhibition (GI%) and cytotoxicity (negative values),[16]; human,−1.74%
same,growth inhibition (GI%) and cytotoxicity (negative values),[17]; human,−52.93%
same,GI50,"M14 (melanoma cell line); Homo sapiens, M14, read-out: Growth inhibition 50 (GI50)",2.01 µM
same,CC50,"M14 (melanoma cell line); Homo sapiens, M14, read-out: LC50 (molar concentration leading to 50% net cell death)",8.71 µM
same,TGI (molar concentration giving total growth inhibition),M14 (melanoma cell line); M14,4.17 µM
same,GI50,[18],2.97 µM
same,GI50,"[19]; Homo sapiens, SK-MEL-28, read-out: Growth inhibition 50 (GI50)",2.11 µM
same,CC50,"[19]; Homo sapiens, SK-MEL-28, read-out: LC50 (molar concentration leading to 50% net cell death)",13.2 µM
same,TGI (molar concentration giving total growth inhibition),[19]; SK-MEL-28,4.9 µM
same,GI50,[20],1.77 µM
same,GI50,"[21]; Homo sapiens, SK-MEL-2, read-out: Growth inhibition 50 (GI50)",13.7 µM
same,CC50,"[21]; Homo sapiens, SK-MEL-2, read-out: LC50 (molar concentration leading to 50% net cell death)",53.7 µM
same,TGI (molar concentration giving total growth inhibition),[21]; SK-MEL-2,26.91 µM
same,TGI (molar concentration giving total growth inhibition),[22],15.85 µM
same,GI50,"[22]; Homo sapiens, read-out: Growth inhibition 50 (GI50)",4.33 µM
same,CC50,"[22]; Homo sapiens, read-out: LC50 (molar concentration leading to 50% net cell death)",40.7 µM
same,IAV/MDCK SI,[23],0.35
same,GI50,"[24]; Homo sapiens, SK-MEL-5, read-out: Growth inhibition 50 (GI50)",1.79 µM
same,CC50,"[24]; Homo sapiens, SK-MEL-5, read-out: LC50 (molar concentration leading to 50% net cell death)",6.46 µM
same,TGI (molar concentration giving total growth inhibition),[24]; SK-MEL-5,3.39 µM
O=C(NCCN1CCN(c2ccc(Cl)cc2)CC1)c1c(Cl)[nH]c2c1CCCc1ccccc1-2 [Compound 13],EC50,[1],41.3 µM
same,inhibition at 10 µM,[2],< 60%
same,inhibition at 10 µM,[3],< 60%
same,inhibition at 10 µM,SR (leukemia cell line),70.7%
same,inhibition at 10 µM,[5],< 60%
same,inhibition at 10 µM,[6],< 60%
same,inhibition at 10 µM,[7],69.2%
same,inhibition at 10 µM,[9],< 60%
same,inhibition at 10 µM,"[15]; Homo sapiens, COLO 205, read-out: growth inhibition (GI%) and cytotoxicity (negative values)",< 60%
same,inhibition at 10 µM,[16],67.4%
same,inhibition at 10 µM,[17],< 60%
same,IAV/MDCK SI,[23],5.45
CCOc1ccccc1N1CCN(CCNC(=O)c2c(Cl)[nH]c3c2CCCc2ccccc2-3)CC1 [Compound 17],EC50,[1],34.9 µM
same,CC50,in vitro,8.13 µM
same,inhibition at 10 µM,[2],69.3%
same,inhibition at 10 µM,[3],90.3%
same,growth inhibition (GI%) and cytotoxicity (negative values),SR (leukemia cell line); human,−5.19%
same,inhibition at 10 µM,[4],< 60%
same,inhibition at 10 µM,[5],82.2%
same,inhibition at 10 µM,[6],< 60%
same,inhibition at 10 µM,[7],81.5%
same,inhibition at 10 µM,[8],60.7%
same,inhibition at 10 µM,[9],81%
same,inhibition at 10 µM,[10],65.7%
same,inhibition at 10 µM,[11],69.3%
same,inhibition at 10 µM,[12],77.6%
same,inhibition at 10 µM,[13],71.6%
same,inhibition at 10 µM,[14],60.4%
same,growth inhibition (GI%) and cytotoxicity (negative values),[15],−47.24%
same,inhibition at 10 µM,[16],< 60%
same,inhibition at 10 µM,[17],< 60%
same,GI50,[25],2.57 µM
same,IAV/MDCK SI,[23],0.23
COc1ccccc1N1CCN(CCNC(=O)c2[nH]c3c(c2Cl)CCCc2ccccc2-3)CC1 [Compound 5],CC50,in vitro,11 µM
same,inhibition at 10 µM,[2],61.8%
same,inhibition at 10 µM,[3],< 60%
same,inhibition at 10 µM,SR (leukemia cell line),90.1%
same,inhibition at 10 µM,[4],62.2%
same,growth inhibition (GI%) and cytotoxicity (negative values),[7]; human,−17.44%
same,inhibition at 10 µM,[8],71.8%
same,inhibition at 10 µM,[9],92.5%
same,inhibition at 10 µM,[10],85.5%
same,inhibition at 10 µM,[11],70%
same,inhibition at 10 µM,[13],77.9%
same,inhibition at 10 µM,[14],< 60%
same,growth inhibition (GI%) and cytotoxicity (negative values),[15],−48.74%
same,inhibition at 10 µM,[16],< 60%
same,inhibition at 10 µM,[17],< 60%
